Experimental data taken from patent publication US9314540B2, “Compounds for use in imaging, diagnosing and/or treatment of diseases of the central nervous system” (PIRAMAL IMAGING SA, priority 2010, dated 2016).

How the values were obtained:
[1] = Biodistribution in NMRI mice, brain radioactivity by gamma counter; format: in vivo; settings: for brain uptake of radioactivity (peak): 2 min p.i.
Method: FIG. 1: Distribution of [^18F] D2 Deprenyl (compound of Example 3) detected via a gamma-detector is shown in a time frame of 4 hours in mouse brains (n=3).
Biodistribution of [^18F] D2 Deprenyl (compound of Example 3) was investigated in NMRI mice weighing 31.1-38.5 g at seven time points. For each time point 3 mice were used. The mice were injected each with 0.256 MBq [^18F] D2 Deprenyl. After the respective time points the mice were sacrificed, the organs taken out and measured in a gamma counter. The results were decay corrected. […] Unexpectedly, the elimination ratio defined by peak uptake at 2 min to uptake at 30 min was 4.2 times. This is improved over the non-deuterated compound where said ratio was 3.6 (Peak: 7.5±0.04% ID/g at 2 min p.i. and 2.10±0.33% ID/g at 30 min p.i.) and will add to a better brain image quality. Therefore, an improved diagnostic performance can be expected.

[2] = Plasma radioactivity and metabolite profile over time in cynomolgus monkey plasma; format: in vivo
Text: D2 Deprenyl and non-deuterated [^18F] Deprenyl in cynomolgus monkey plasma.
D2 Deprenyl and (b) non-deuterated [^18F] Deprenyl in cynomolgus monkey plasma. The time course of the parent compounds as well as metabolites expressed in [area %] generated from respective HPLC chromatograms are shown.
Plasma radioactivity metabolic profiles have been monitored over time for [^18F] D2 Deprenyl compared to the non-deuterated [^18F] Deprenyl in cynomolgus monkey plasma (FIG. 3). […] D2 Deprenyl in plasma the radioactivity for [^18F] D2 Deprenyl was 18% and 31% higher as observed for [^18F] Deprenyl at the 30 and 60 min time points, respectively (FIG. 3). In addition, metabolites occurring in cynomolgus monkey plasma over time have been monitored for both ligands (FIG. 4). […] Deprenyl. Specifically metabolite M1 was less produced (FIG. 4a). In addition, time activity curves (TAC) of [^18F] […] This gives more flexibility regarding quantification of the PET data and is, thus, an advantage.

human MAO-B = biological target: T1, human MAO-B (Homo sapiens, UniProt P27338); test: Amplex Red Monoamine Oxidase Assay-Kit, MAO-B affinity; format: biochemical; settings: human MAO-B from baculovirus-infected insect cells; read-out: affinity towards MAO-B, IC50
T1 construct: purchased Sigma; host or cells: insect cells infected with recombinant baculovirus
T1 sequence (P27338 1-520): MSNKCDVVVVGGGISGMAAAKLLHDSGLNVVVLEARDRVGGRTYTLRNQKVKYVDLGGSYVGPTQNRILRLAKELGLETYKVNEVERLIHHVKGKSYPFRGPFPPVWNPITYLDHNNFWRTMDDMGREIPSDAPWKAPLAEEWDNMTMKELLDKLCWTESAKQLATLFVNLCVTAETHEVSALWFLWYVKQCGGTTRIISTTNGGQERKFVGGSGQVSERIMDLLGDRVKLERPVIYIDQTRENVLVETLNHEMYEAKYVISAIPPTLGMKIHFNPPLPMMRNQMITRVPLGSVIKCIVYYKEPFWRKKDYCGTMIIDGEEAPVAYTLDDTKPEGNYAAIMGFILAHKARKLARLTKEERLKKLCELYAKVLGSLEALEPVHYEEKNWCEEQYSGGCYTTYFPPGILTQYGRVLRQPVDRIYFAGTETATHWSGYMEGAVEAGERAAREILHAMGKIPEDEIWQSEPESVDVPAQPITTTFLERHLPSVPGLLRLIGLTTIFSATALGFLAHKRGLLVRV
Method: [^19F] […] This was determined by incubating human MAO-B prepared from insect cells infected with recombinant baculovirus containing respective cDNA inserts (Sigma) with respective reagents of the Amplex Red Monoamine Oxidase Assay-Kit (Molecular Probes).

[3] = In vitro metabolite profile in liver microsomes and hepatocytes (LC/MS); format: in vitro ADME, rat, mouse and human; settings: for oxidation at the propargyl moiety (M-7) as additional metabolic pathway: microsome and hepatocyte incubations; for major metabolic pathway: rat, mouse and human liver microsomes, human and rat hepatocytes
Text: FIG. 9: In vitro metabolite pathways in rat, mouse, dog, monkey and human microsomes and rat and human heaptocyte preparations. The metabolites were detected by LC/MS. (a) Metabolite pathways of non-deuterated [^18F] Deprenyl and (b) Metabolite pathways of [^18F] D2 Deprenyl.
[^18F] D2 Deprenyl and [^19F] D2 Deprenyl have been investigated regarding their metabolic properties in vitro and in vivo. […] D2 Deprenyl (FIG. 9).

MAO-A = biological target: T2, MAO-A (Homo sapiens, UniProt P21397); test: Amplex Red Monoamine Oxidase Assay-Kit, MAO-A affinity; format: biochemical; settings: read-out: affinity towards MAO-A
T2 sequence (P21397 1-527): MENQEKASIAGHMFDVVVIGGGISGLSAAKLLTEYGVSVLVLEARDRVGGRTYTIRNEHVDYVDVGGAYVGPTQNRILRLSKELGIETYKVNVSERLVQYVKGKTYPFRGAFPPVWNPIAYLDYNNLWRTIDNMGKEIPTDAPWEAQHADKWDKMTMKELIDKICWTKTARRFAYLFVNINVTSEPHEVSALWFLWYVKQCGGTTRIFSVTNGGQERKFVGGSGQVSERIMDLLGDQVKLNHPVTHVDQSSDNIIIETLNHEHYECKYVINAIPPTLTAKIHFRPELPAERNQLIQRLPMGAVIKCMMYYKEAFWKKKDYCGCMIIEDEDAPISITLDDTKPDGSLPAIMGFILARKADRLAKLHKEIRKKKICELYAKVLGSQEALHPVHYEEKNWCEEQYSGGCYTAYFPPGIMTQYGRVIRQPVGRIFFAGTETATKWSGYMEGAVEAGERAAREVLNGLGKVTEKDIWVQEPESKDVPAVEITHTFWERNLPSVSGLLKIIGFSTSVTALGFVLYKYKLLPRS

Structure (SMILES)	elimination ratio, peak uptake at 2 min to uptake at 30 min [1]	brain uptake of radioactivity (peak) [1] [% ID/g]	brain radioactivity ([1]; 30 min p.i.) [% ID/g]	brain radioactivity ([1]; 4 hours p.i.) [% ID/g]	formation of metabolite M1 compared to non-deuterated [18F] Deprenyl [2]	stability in plasma compared to non-deuterated [18F] Deprenyl [2]	plasma radioactivity higher than for [18F] Deprenyl ([2]; 30 min) [%]	plasma radioactivity higher than for [18F] Deprenyl ([2]; 60 min) [%]	IC50 (human MAO-B) [nM]	oxidation at the propargyl moiety (M-7) as additional metabolic pathway [3]	major metabolic pathway [3]	IC50 (MAO-A) [nM]
[2H]C([2H])(C#C)N(C)[C@H](CF)Cc1ccccc1 [[^18F] D2 Deprenyl, N-[(2S)-1-[^18F]fluoro-3-phenylpropan-2-yl]-N-methyl(1,1-^2H2)— prop-2-yn-1-amine]	4.2	6.03±1.09	1.44±0.15	0.91±0.09	less produced	more stable	18	31				
[2H]C([2H])(C#C)N(C)[C@H](CF)Cc1ccccc1 [[^19F] D2 Deprenyl, N-[(2S)-1-fluoro-3-phenylpropan-2-yl]-N-methyl(1,1-^2H)prop-2-yn-1-amine]									41.3	not detectable any more	N-dealkylation	> 2000
C#CCN(C)[C@H](C[18F])Cc1ccccc1 [non-deuterated compound, reference compound]	3.6	7.5±0.04	2.10±0.33							observed	N-dealkylation	
